The values below come from paper PMC9749896 (Bioorganic & medicinal chemistry letters, 2022).

Assay [1] has as its system EGFR^L858R/T790M/C797S models. Conditions: daily oral dosing at 50 mg/kg; cited from earlier work.
Assay [2] deals with A431 (wt EGFR). Conditions: daily oral dosing at 50 mg/kg; cited from earlier work.
The test system of assay [3] is Ba/F3 EGFR^L858R/T790M cells. In words: cells. The note with it: Mus musculus, BaF3, read-out: cell EC50, Ba/F3 EGFR L858R/T790M.
The test system of assay [4] is Ba/F3 EGFR^L858R/T790M/C797S cells. In words: cells. Conditions: Mus musculus, BaF3, read-out: cell EC50, Ba/F3 EGFR L858R/T790M/C797S.
Assay [5] has as its system Ba/F3 EGFR^L858R/T790M cells. Conditions: cited from earlier work.
In assay [6] the test system is H1975 (EGFR^L858R/T790M). The note with it: daily oral dosing at 100 mg/kg; cited from earlier work.

SMILES strings stand for the structures. pEC50: −log10 of the molar value.

For the compound `CN1CCC(c2ccc(-c3ccc4c(c3)C(=O)N(C(C(=O)Nc3nccs3)c3cc(F)ccc3O)C4)cc2)CC1` (stereo not drawn) [Compound 4], the “efficacy in triple mutant (EGFR L858R/T790M/C797S) models” value in assay [1] was “tumor regression”. In assay [2], the “efficacy in A431 (wt EGFR) model” value is recorded as “minimal effects”.
In the case of `CN1CCC(c2ccc(-c3ccc4ncn(C(C(=O)Nc5nccs5)c5ccccc5)c(=O)c4c3)cc2)CC1` (stereo not drawn) [Compound 23], the pEC50 in assay [3] was 6.14; in assay [4], 7.30.
In the case of `O=C(Nc1nccs1)C(c1cc(F)ccc1O)N1Cc2ccc(-c3ccc(N4CCNCC4)cc3)cc2C1=O` (stereo not drawn) [Compound 2], in assay [5], the “single-agent activity in Ba/F3 EGFR L858R/T790M antiproliferative assay” value is “good single-agent activity”. For the same compound, the H1975 model efficacy entry in assay [6] is recorded as “efficacy was observed”.
